Results as given in patent US20260258084A1, “New Peptides as Selective IL-23 Receptor Antagonists” (Sanofi, priority 2022, published 2026).
Positions of bridges follow the written chain, without caps; N, C: chain ends. Non-standard residues stand in square brackets, D forms with d. Residues, ends and D or L forms follow the SMILES beside them. 2Nal = N[C@@H](Cc1ccc2ccccc2c1)C(=O)O; αMeL = CC(C)C[C@](C)(N)C(=O)O; Pen = CC(C)(S)[C@H](N)C(=O)O; Thp = NC1(C(=O)O)CCOCC1; Aib = CC(C)(N)C(=O)O; Ahx = NCCCCCC(=O)O; Ava = NCCCCC(=O)O

Molecular target: T1, human interleukin-23 receptor (recombinant human IL-23R-Fc chimera) (Homo sapiens, UniProt Q5VWK5)
T1 construct: Fc (IgG Fc fusion)
Experiment: Human ELISA IL23/IL23R (assay for specific human IL23R antagonists)
Format: binding
Conditions: Table 11, Pen peptide compounds; read-out: Elisa IC50 Pen
Experimental: Antagonism of compounds for human interleukin-23 receptor antagonists, was determined by an ELISA assay.
A 384-well plate was coated with 50 μl/well of human IL23 at a final concentration of […] and incubated overnight at 4° C. The wells were washed 3 times with 80 μl wash buffer and blocked with 80 μl blocking buffer for 60 minutes at room temperature and washed again. 20 μl of serially diluted test peptides was added to each well and subsequently 20 μl of recombinant human IL-23R-Fc chimera at final concentration of 0.1 μg/ml. The plate was incubated for 60 minutes at room temperature. After the wells were washed, bound IL23R-Fc was detected with goat anti-hu-IgG1-HRP antibody. Signals were visualized with QuantaBlu Fluorogenic Peroxidase Substrate.

Structure (SMILES) | IC50
COc1ccc(C[C@@H]2NC(=O)[C@H]3NC(=O)[C@H](CCC(N)=O)NC(=O)[C@H](Cc4c[nH]c5ccccc45)NC(=O)[C@H]([C@@H](C)O)NC(=O)[C@H](CC(N)=O)NC(=O)[C@@H](NC(=O)CCCCCNC(=O)CC[C@@H](C(=O)N[C@@H](CC(N)=O)C(=O)NCC(N)=O)NC(=O)C4(CCOCC4)NC(=O)[C@H](Cc4ccc5ccccc5c4)NC2=O)C(C)(C)SSC3(C)C)cc1 [compound 161] ([Ahx][Pen]NTWQ[Pen]Y(Me)[2Nal][Thp]ENG-NH2; disulfide 2-7 (inferred); lactam N-11 (inferred)) | 76.6 nM
COc1ccc(C[C@@H]2NC(=O)[C@H]3NC(=O)[C@H](CCC(N)=O)NC(=O)[C@H](Cc4c[nH]c5ccccc45)NC(=O)[C@H]([C@@H](C)O)NC(=O)[C@H](CC(N)=O)NC(=O)[C@@H](NC(=O)CCCCNC(=O)CC[C@@H](C(=O)N[C@@H](CC(N)=O)C(=O)N[C@@H](CC(N)=O)C(N)=O)NC(=O)C(C)(C)NC(=O)[C@H](Cc4ccc5ccccc5c4)NC2=O)C(C)(C)SSC3(C)C)cc1 [compound 159] ([Ava][Pen]NTWQ[Pen]Y(Me)[2Nal][Aib]ENN-NH2; disulfide 2-7; lactam N-11) | 280 nM
COc1ccc(C[C@@H]2NC(=O)[C@H]3NC(=O)[C@H](CCC(N)=O)NC(=O)[C@H](Cc4c[nH]c5ccccc45)NC(=O)[C@H]([C@@H](C)O)NC(=O)[C@H](CC(N)=O)NC(=O)[C@@H](NC(=O)CCCCCNC(=O)CC[C@@H](C(=O)N[C@@H](CC(N)=O)C(=O)N[C@@H](CC(N)=O)C(N)=O)NC(=O)C(C)(C)NC(=O)[C@H](Cc4ccc5ccccc5c4)NC2=O)C(C)(C)SSC3(C)C)cc1 [compound 160] ([Ahx][Pen]NTWQ[Pen]Y(Me)[2Nal][Aib]ENN-NH2; disulfide 2-7; lactam N-11) | 72.2 nM
COc1ccc(C[C@@H]2NC(=O)[C@@H]3CSSC(C)(C)[C@H](NC(=O)CCCCCNC(=O)C[C@@H](C(=O)N[C@@H](CC(N)=O)C(=O)N[C@@H](CC(N)=O)C(N)=O)NC(=O)C(C)(C)NC(=O)[C@H](Cc4ccc5ccccc5c4)NC2=O)C(=O)N[C@@H](CC(N)=O)C(=O)N[C@@H]([C@@H](C)O)C(=O)N[C@@H](Cc2c[nH]c4ccccc24)C(=O)N[C@@H](CCC(N)=O)C(=O)N3)cc1 [compound 164] ([Ahx][Pen]NTWQCY(Me)[2Nal][Aib]DNN-NH2; disulfide 2-7; lactam N-11) | 23.1 nM
COc1ccc(C[C@@H]2NC(=O)[C@H]3NC(=O)[C@H](CCC(N)=O)NC(=O)[C@H](Cc4c[nH]c5ccccc45)NC(=O)[C@H]([C@@H](C)O)NC(=O)[C@H](CC(N)=O)NC(=O)[C@@H](NC(=O)CCCCCNC(=O)C[C@@H](C(=O)N[C@@H](CC(N)=O)C(=O)N[C@@H](CC(N)=O)C(N)=O)NC(=O)[C@](C)(CC(C)C)NC(=O)[C@H](Cc4ccc5ccccc5c4)NC2=O)C(C)(C)SSC3(C)C)cc1 [compound 162] ([Ahx][Pen]NTWQ[Pen]Y(Me)[2Nal][αMeL]DNN-NH2; disulfide 2-7; lactam N-11) | 33.5 nM
